EC50 and IC50 data for seven molecules are collected here from ChEMBL document CHEMBL1132550, “Modeling of amino-terminal domains of group I metabotropic glutamate receptors: structural motifs affecting ligand selectivity” (J Med Chem, 1999).

In experiment [1] the target is Metabotropic glutamate receptor 5 (Homo sapiens, UniProt P41594). The experiment can be described thus: Compound was tested for it's […] activity against Ser152 and Thr175 (Metabotropic glutamate receptor 5). In kind it is functional.
Chain of Metabotropic glutamate receptor 5 (P41594 whole entry): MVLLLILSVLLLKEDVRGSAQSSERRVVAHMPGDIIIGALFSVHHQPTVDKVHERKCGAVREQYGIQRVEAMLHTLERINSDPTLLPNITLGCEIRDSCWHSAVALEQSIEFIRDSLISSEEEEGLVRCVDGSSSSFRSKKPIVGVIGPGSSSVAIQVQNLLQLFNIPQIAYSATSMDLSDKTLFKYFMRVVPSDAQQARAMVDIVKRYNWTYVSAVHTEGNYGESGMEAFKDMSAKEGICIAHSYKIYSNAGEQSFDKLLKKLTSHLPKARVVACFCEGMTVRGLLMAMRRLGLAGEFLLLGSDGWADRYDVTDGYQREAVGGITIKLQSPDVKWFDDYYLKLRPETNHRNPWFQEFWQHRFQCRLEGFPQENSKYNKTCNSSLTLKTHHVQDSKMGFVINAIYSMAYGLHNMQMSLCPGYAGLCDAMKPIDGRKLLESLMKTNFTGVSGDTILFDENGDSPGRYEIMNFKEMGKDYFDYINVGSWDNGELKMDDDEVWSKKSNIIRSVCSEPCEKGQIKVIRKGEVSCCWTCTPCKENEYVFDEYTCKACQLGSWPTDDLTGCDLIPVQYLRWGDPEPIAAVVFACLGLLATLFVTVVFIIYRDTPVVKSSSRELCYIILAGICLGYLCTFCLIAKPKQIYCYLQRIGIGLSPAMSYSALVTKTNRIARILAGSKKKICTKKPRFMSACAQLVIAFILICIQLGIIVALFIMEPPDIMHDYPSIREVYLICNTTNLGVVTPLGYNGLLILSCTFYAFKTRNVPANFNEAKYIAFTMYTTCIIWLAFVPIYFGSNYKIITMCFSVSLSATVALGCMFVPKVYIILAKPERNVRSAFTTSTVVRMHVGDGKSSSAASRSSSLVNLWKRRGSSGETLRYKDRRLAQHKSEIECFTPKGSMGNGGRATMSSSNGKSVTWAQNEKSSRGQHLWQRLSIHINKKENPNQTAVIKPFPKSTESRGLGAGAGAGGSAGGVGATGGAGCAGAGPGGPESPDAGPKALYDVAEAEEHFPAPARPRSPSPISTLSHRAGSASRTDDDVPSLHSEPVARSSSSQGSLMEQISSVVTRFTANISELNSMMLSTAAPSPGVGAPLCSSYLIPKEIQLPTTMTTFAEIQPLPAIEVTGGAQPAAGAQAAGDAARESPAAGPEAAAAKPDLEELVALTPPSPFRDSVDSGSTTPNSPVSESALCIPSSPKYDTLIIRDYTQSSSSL
Experiment [2] concerns the target Metabotropic glutamate receptor 1 (Homo sapiens, UniProt Q13255). The experiment in a line: Compound was tested for its […] activity against Ser165 and Thr188 (Metabotropic glutamate receptor 1) receptor. In kind it is functional.

Chain of Metabotropic glutamate receptor 1 (Q13255 whole entry): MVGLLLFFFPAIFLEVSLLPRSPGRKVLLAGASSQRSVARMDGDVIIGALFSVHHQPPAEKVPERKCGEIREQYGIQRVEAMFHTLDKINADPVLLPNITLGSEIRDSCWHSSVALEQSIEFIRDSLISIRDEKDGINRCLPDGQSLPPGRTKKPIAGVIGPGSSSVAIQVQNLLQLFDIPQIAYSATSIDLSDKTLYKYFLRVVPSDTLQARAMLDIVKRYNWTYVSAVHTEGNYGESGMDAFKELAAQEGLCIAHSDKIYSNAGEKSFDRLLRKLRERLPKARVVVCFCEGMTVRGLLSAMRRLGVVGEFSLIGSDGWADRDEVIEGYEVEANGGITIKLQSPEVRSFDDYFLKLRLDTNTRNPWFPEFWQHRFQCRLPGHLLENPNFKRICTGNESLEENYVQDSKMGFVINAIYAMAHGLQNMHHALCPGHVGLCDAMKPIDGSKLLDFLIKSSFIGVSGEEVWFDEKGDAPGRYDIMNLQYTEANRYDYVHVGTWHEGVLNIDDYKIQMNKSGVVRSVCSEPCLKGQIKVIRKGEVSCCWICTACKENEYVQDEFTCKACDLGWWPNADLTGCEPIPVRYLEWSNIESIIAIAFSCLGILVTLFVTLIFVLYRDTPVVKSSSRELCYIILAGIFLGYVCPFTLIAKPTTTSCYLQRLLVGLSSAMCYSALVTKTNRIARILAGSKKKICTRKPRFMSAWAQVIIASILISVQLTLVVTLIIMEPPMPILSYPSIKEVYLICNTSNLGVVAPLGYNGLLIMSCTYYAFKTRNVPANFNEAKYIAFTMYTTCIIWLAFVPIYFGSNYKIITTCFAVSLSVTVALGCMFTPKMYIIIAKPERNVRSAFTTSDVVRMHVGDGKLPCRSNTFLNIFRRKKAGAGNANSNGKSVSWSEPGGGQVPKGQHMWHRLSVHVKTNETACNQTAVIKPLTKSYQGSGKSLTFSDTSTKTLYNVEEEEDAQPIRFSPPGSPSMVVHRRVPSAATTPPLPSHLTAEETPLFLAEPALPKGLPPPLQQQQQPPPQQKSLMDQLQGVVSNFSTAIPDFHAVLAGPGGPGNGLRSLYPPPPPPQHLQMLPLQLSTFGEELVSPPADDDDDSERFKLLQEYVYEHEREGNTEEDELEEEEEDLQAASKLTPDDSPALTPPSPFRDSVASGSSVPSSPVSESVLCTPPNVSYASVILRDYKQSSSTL

The molecule `NC(C(=O)O)C12CC(C(=O)O)(C1)C2` (stereo not given) displayed an EC50 in experiment [1] of 103 µM. With `Cc1cc(C(=O)O)ccc1[C@H](N)C(=O)O`, the concentration for half-maximal inhibition (IC50) in experiment [1] is above 100 µM.

On to `Cc1cccc(/C=C/c2ccccc2)n1`, for which the half-maximal inhibitory concentration (IC50) in experiment [1] was 0.29 µM; in experiment [2], above 100 µM. In turn, `NC(C(=O)O)c1cc(O)ccc1Cl` (stereo not given) had an EC50 in experiment [1] of 750 µM. As to `Cc1ccc(O)c(/N=N/c2ccccc2)n1`, the IC50 in experiment [1] was 0.37 µM; in experiment [2] it was above 100 µM. As for `N[C@]1(C(=O)O)CCc2cc(C(=O)O)ccc21`, the values for the half-maximal inhibitory concentration (IC50) in experiment [1] and in experiment [2] were above 1000 µM and 214 µM, respectively. `N[C@H](C(=O)O)c1cc(O)cc(O)c1` registered a 50% effective concentration (EC50) in experiment [2] of 6.6 µM.

As usually defined, the EC50 is the concentration that produces a half-maximal response. A low value points to a more potent agent. The IC50 is the concentration that inhibits the measured activity by half.
